Literature values as cited in US8574562B2, “Microemulsion pharmaceutical composition comprising a macrolide immunosuppressant drug” (Novaliq GmbH, priority 2009, dated 2013).

What was measured:
[1] = methanol, ethanol, acetone, chloroform, ethyl acetate, diethyl ether
[2] = relative to ciclosporin
[3] = relative to ciclosporin; remark: listed apart in the source

solubility in organic solvents [1]: soluble
SMILES: C=CC[C@@H]1/C=C(\C)C[C@H](C)C[C@H](OC)[C@H]2O[C@@](O)(C(=O)C(=O)N3CCCC[C@H]3C(=O)O[C@H](/C(C)=C/[C@@H]3CC[C@@H](O)[C@H](OC)C3)[C@H](C)[C@@H](O)CC1=O)[C@H](C)C[C@@H]2OC [Tacrolimus]
immunosuppressive activity in vitro, higher than that of ciclosporin [2]: 50-100 times
immunosuppressive activity in vivo, higher than that of ciclosporin [3]: 10-20 times
